Here are results for five compounds from US9493441B2, “Acyclic cyanoethylpyrazoles as janus kinase inhibitors” (Merck Sharp & Dohme Corp., priority 2011, dated 2016).

The target in one experiment is JAK2 (Homo sapiens (Human), UniProt O60674). The experiment is described as follows: Jak biochemical HTRF assay, JAK2. Particulars: JAK2 IC50 (nM), recombinant GST-tagged catalytic domain, [ATP] […]. On the technique in general: TR-FRET usually uses a lanthanide donor and a delayed reading to cut background.
Another experiment has as its target JAK1 (Homo sapiens (Human), UniProt P23458). In words: Jak biochemical HTRF assay, JAK1. The note with it: JAK1 IC50 (nM), recombinant GST-tagged catalytic domain, [ATP] 31.8 μM.

Chain of JAK1 (P23458 875-1153): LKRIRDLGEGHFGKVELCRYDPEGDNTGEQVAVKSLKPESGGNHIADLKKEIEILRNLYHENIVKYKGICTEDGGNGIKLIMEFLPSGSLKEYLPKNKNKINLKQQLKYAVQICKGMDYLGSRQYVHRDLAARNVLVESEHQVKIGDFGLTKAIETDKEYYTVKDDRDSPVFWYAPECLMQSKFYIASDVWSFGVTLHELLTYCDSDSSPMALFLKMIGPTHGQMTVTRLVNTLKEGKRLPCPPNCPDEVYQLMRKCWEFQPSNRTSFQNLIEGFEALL
Chain of JAK2 (O60674 849-1124): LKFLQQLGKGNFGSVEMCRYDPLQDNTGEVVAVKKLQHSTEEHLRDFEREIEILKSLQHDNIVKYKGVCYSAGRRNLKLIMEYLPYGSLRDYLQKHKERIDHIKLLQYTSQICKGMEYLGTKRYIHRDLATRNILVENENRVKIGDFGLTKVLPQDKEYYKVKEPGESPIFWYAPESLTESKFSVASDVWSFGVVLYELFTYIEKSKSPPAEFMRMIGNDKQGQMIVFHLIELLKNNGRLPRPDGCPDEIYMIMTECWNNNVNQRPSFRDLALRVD

Usually IC50 stands for the concentration that inhibits the measured activity by half. Turning to `CC(C)COC(=O)N1CCC([C@H](CC#N)n2cc(C(N)=O)c(Nc3ccc(F)cc3)n2)CC1` (single isomer, unassigned) [Example 12-3, 2-methylpropyl 4-[(1S or 1R)-1-{4-carbamoyl-3-[(4-fluorophenyl)amino]-1H-pyrazol-1-yl}-2-cyanoethyl]piperidine-1-carboxylate], the IC50 at JAK2 amounted to 1500 nM; at JAK1 it was 245 nM.
Turning to `N#CCC(C1CC1)n1cc(C(N)=O)c(Nc2ccc3c(c2)OCCO3)n1` (stereo not shown) [Example 4-20, 1-(2-cyano-1-cyclopropylethyl)-3-(2,3-dihydro-1,4-benzodioxin-6-ylamino)-1H-pyrazole-4-carboxamide], the IC50 on JAK2 is 87 nM; at JAK1 it was 24 nM.
Taken in the same sequence, the figures for `N#CC[C@@H](C1CCN(C(=O)OC2CCOCC2)CC1)n1cc(C(N)=O)c(Nc2ccc(F)cc2)n1` [Example 11-8, tetrahydro-2H-pyran-4-yl 4-[(1S)-1-{4-carbamoyl-3-[(4-fluorophenyl)amino]-1H-pyrazol-1-yl}-2-cyanoethyl]piperidine-1-carboxylate] were 1500 nM and 220 nM.
As to `N#CC[C@@H](C1CCN(C(=O)OCC(F)(F)F)CC1)n1cc(C(N)=O)c(Nc2ccc(F)cc2)n1` [Example 11-7, 2,2,2-trifluoroethyl 4-[(1S)-1-{4-carbamoyl-3-[(4-fluorophenyl)amino]-1H-pyrazol-1-yl}-2-cyanoethyl]piperidine-1-carboxylate], the IC50 on JAK2 came out at 425 nM; on JAK1, 7 nM.
For `N#CCC(C1CC1)n1cc(C(N)=O)c(Nc2ccc(F)cc2)n1` (stereo not drawn) [Example 4-11, l-(2-cyano-1-cyclopropylethyl)-3-[(4-fluorophenyl)amino]-1H-pyrazole-4-carboxamide], the IC50 on JAK2 was determined as 66 nM; on JAK1 it was 9 nM.
